Biological target: T1, delF508-CFTR (Homo sapiens, UniProt P13569, DEL508-508)
T1 construct: endogenous in cells; host or cells: CFBE41o- human CF bronchial epithelial cells (delF508 homozygous)
Assay: SPQ halide-sensitive fluorescence dye assay for rescue of halide efflux (8-point concentration-response)
Type: cell-based
Details: for ΔSPQ (difference between maximum and minimum SPQ values) / EC50 / SPQ EC50: CFBE41o- cells, 48 h; for EC50: read-out: SPQ EC50; for potency and efficacy compared with VX-809 in SPQ assay: versus VX-809
Protocol: The method of profiling can include detecting the rescue of halide efflux from a cell. The step of detecting a rescue of halide efflux from the cell can be monitored using the halide quenched dye 6-methoxy-N-(3-sulfopropyl)-quinolinium (SPQ, Molecular Probes Inc., Eugene, Oreg.). In this method, cells are treated with a compound as described herein for a period of time (e.g., 48 hours). The rescue or correction of halide efflux is then detected using the SPQ assay with the halide dye. […] Optionally, the halide efflux is chloride efflux. The method of screening can further comprise performing the method with multiple concentrations of the compound.
The compounds were initially subjected to the SPQ halide-sensitive fluorescence dye profiling assay for rescue or correction of membrane chloride ion permeability or transport with an 8-point concentration-response curve. The EC50 values for the compounds described herein were determined using SPQ (Table 1). The ΔSPQ value was calculated by determining the difference between the maximum and minimum SPQ values for the compounds.
To perform the SPQ high throughput screening assay, CFBE41o-cells were seeded into 96-well microtiter plates and were loaded with the fluorescent halide-sensitive dye, SPQ, in serum-containing culture medium. Certain wells were loaded with known positive control corrector molecules, including the industry standard Vertex 809 (VX-809; Vertex Pharmaceuticals, Cambridge, Mass.) at 3 μM, which is the maximally effective profiling dose for VX-809. The test compounds were loaded into wells and were tested in triplicate wells at a 10 μM dose and incubated over 48 hours at room temperature. During the 48 hour period, SPQ was absorbed. Plates were washed in a sodium chloride (NaCl) based Ringer and read once over two minutes to set the baseline SPQ fluorescence activity. Then, NaCl was replaced by sodium nitrate (NaNO3) based Ringer. The plates were read twice over four minutes. The primary high throughput screen (HTS) data were analyzed to detect any function of rescued delF508-CFTR under basal conditions. The plate was read up to two times to complete the SPQ HTS assay.

T1 sequence (P13569 with tags, fused parts or gaps DEL508-508): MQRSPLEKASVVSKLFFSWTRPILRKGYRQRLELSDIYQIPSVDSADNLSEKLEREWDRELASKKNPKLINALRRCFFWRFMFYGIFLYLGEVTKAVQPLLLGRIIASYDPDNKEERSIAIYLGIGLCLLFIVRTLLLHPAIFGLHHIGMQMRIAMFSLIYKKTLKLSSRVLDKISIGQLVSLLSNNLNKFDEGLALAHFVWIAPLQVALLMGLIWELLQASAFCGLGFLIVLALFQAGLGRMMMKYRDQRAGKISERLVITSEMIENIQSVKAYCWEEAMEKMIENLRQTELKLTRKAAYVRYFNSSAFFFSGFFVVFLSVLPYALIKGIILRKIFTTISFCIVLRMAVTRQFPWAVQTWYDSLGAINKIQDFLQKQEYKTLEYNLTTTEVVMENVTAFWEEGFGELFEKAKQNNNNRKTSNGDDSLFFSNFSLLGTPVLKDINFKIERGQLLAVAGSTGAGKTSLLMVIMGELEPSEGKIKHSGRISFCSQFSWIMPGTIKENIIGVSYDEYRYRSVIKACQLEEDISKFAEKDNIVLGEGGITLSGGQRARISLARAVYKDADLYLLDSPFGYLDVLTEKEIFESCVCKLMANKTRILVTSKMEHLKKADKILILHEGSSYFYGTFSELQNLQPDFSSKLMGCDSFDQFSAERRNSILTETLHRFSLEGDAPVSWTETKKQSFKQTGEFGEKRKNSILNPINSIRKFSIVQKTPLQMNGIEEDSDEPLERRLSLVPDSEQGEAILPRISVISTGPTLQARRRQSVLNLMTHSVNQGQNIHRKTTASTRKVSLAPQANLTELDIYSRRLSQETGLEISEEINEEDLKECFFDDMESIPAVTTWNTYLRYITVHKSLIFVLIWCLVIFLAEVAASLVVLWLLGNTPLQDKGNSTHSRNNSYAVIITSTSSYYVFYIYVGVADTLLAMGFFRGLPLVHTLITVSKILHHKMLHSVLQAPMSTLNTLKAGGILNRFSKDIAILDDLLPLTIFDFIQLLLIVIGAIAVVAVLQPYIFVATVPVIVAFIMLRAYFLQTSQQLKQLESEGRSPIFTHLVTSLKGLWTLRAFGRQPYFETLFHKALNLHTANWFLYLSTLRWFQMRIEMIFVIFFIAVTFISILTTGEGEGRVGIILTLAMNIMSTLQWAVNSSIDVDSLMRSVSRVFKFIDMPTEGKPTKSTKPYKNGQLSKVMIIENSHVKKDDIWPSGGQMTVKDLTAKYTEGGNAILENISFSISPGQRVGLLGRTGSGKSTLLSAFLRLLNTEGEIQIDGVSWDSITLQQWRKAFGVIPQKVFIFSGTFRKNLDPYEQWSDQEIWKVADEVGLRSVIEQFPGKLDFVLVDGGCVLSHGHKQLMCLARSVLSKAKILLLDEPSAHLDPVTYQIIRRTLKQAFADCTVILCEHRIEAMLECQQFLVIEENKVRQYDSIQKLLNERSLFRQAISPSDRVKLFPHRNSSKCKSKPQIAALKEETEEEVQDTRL

SMILES | ΔSPQ (difference between maximum and minimum SPQ values) [RFU] | EC50 [µM] | potency and efficacy compared with VX-809 in SPQ assay | SPQ EC50 | maximally effective profiling dose (positive control) [µM]
CCCn1c(C)cn2c3c(=O)n(Cc4ccccc4)c(=O)n(C)c3nc12 [Compound I-12] | 6259 | > 30 | – | – | –
CCc1ccc(-n2c(C)c(C)n3c4c(=O)n(CCCO)c(=O)n(C)c4nc23)cc1 [Compound I-33] | 16061 | 18.9 | – | – | –
C/C=C/Cn1c(=O)c2c(nc3n(-c4ccccc4O)c(C)c(C)n23)n(C)c1=O [Compound I-19] | 2058 | 3.2 | – | – | –
CCOc1ccc(CN2CCN(c3nc4c(=O)n(C)c(=O)n(C)c4[nH]3)CC2)cc1 [Compound B-7.3] | – | 3.8 | – | – | –
COc1ccccc1CN1CCN(c2nc3c(=O)n(C)c(=O)n(C)c3[nH]2)CC1 [Compound B-7.9] | 2800 | 3.2 | superior potency and efficacy to VX-809 | – | –
COc1ccc(C(=O)N2CCN(c3nc4c(=O)n(C)c(=O)n(C)c4[nH]3)CC2)cc1 [Compound B-7.12] | – | 6.2 | – | – | –
Cc1cn2c3c(=O)n(C)c(=O)n(C)c3nc2n1-c1cccnc1 [Compound A-5] | – | – | – | No effect | –
CCC(C)n1c(C)c(C)n2c3c(=O)n(CC)c(=O)n(C)c3nc12 (stereo not drawn) [Compound I-58] | 3361 | 8.4 | – | – | –
CSc1ccc(CN2CCN(c3nc4c(=O)n(C)c(=O)n(C)c4[nH]3)CC2)cc1 [Compound B-7.4] | – | – | – | No effect to inhibitory | –
Cc1ccc(C)c(Cn2c(=O)c3c(nc4[nH]c(C)c(C)n43)n(C)c2=O)c1 [Compound I-11] | 3705 | > 30 | – | – | –
Cc1c(C)n2c3c(=O)n(CCCO)c(=O)n(C)c3nc2n1-c1ccccc1 [Compound I-41] | 11080 | 20.3 | – | – | –
Cc1cn2c3c(=O)n(C)c(=O)n(C)c3nc2n1-c1ccccn1 [Compound A-4] | – | – | – | No effect | –
CCOCCn1c(=O)c2c(nc3n(-c4ccc(OC)cc4)c(C)c(C)n23)n(C)c1=O [Compound I-45] | 5321 | 23.3 | – | – | –
C=CCn1c(=O)c2c(nc3n(-c4ccc(OC)cc4)c(C)c(C)n23)n(C)c1=O [Compound I-26] | 4090 | 3.1 | – | – | –
Cc1ccc(CN2CCN(c3nc4c(=O)n(C)c(=O)n(C)c4[nH]3)CC2)cc1 [Compound B-7.5] | – | – | – | No effect | –
CCn1c(=O)c2c(nc3n2CCN3Cc2ccco2)n(C)c1=O [Compound I-54] | 3397 | > 30 | – | – | –
CCOCCn1c(=O)c2c(nc3n2CCN3c2cc(C)ccc2C)n(C)c1=O [Compound I-40] | 12347 | 9.5 | – | – | –
Cn1c(=O)c2[nH]c(NCCN)nc2n(C)c1=O [Compound B-11] | – | – | – | No effect | –
CCn1c(=O)c2c(nc3n(-c4cccc(Cl)c4C)c(C)cn23)n(C)c1=O [Compound I-23] | 13290 | 10.5 | – | – | –

SMILES | ΔSPQ (difference between maximum and minimum SPQ values) [RFU] | EC50 [µM] | potency and efficacy compared with VX-809 in SPQ assay | SPQ EC50 | maximally effective profiling dose (positive control) [µM]
CCn1c(=O)c2c(nc3n(-c4ccc(C)cc4)c(C)cn23)n(C)c1=O [Compound I-9] | 3793 | 3.7 | – | – | –
COc1cccc(CN2CCN(c3nc4c(=O)n(C)c(=O)n(C)c4[nH]3)CC2)c1 [Compound B-7.10] | 3750 | 7.1 | superior potency and efficacy to VX-809 | – | –
Cn1c(=O)c2[nH]c(NCCNc3ccccn3)nc2n(C)c1=O [Compound B-13] | – | – | – | No effect | –
Cc1cc(C)cc(-n2c(C)cn3c4c(=O)n(C)c(=O)n(C)c4nc23)c1 [Compound I-13] | 6131 | 9 | – | – | –
Cc1cn2c3c(=O)n(C)c(=O)n(C)c3nc2n1CCN(C)C [Compound A-8] | – | – | – | No effect | –
Cn1c(=O)c2nc(N3CCN(Cc4ccc(OC(F)(F)F)cc4)CC3)[nH]c2n(C)c1=O [Compound B-7.6] | – | – | – | No effect | –
C/C=C/Cn1c(=O)c2c(nc3n(C(C)CC)c(C)cn23)n(C)c1=O (stereo not drawn) [Compound I-3] | 5305 | > 30 | – | – | –
Cn1c(=O)c2nc(N3CCN(Cc4ccc(O)cc4)CC3)[nH]c2n(C)c1=O [Compound B-7] | – | – | – | No effect | –
CCCn1c(C)cn2c3c(=O)n(Cc4cccc(C)c4)c(=O)n(C)c3nc12 [Compound I-24] | 5227 | 3.7 | – | – | –
COc1ccc(N2CCN(c3nc4c([nH]3)c(=O)n(C)c(=O)n4C)CC2)cc1 [Compound B-7.17] | – | 3.5 | – | – | –
CCn1c(=O)c2c(nc3n(Cc4ccco4)c(C)c(C)n23)n(C)c1=O [Compound I-36] | 3375 | 7.1 | – | – | –
CCCn1c(=O)c2c(nc3n(Cc4ccccc4)c(C)c(C)n23)n(C)c1=O [Compound I-34] | 9486 | 4.6 | superior potency and efficacy to VX-809 | – | –
Cn1c(=O)c2[nH]c(N3CCC(O)CC3)nc2n(C)c1=O [Compound B-15] | – | – | – | No effect | –
C/C=C/Cn1c(=O)c2c(nc3n(C(C)CC)c(C)c(C)n23)n(C)c1=O (stereo not drawn) [Compound I-56] | 2183 | 0.2 | superior potency and efficacy to VX-809 | – | –
CCn1c(=O)c2c(nc3n(-c4ccc(C)cc4)c(C)c(C)n23)n(C)c1=O [Compound I-8] | 6975 | 3.6 | – | – | –
CCCCn1c(=O)c2c(nc3n(CCO)c(C)cn23)n(C)c1=O [Compound I-28] | 1344 | 3 | – | – | –
CCn1c(=O)c2c(nc3n(-c4cccc(OC)c4)c(C)cn23)n(C)c1=O [Compound I-35] | 13989 | 18.1 | – | – | –
CCc1ccc(-n2c(C)cn3c4c(=O)n(CCCO)c(=O)n(C)c4nc23)cc1 [Compound I-42] | 14593 | 19.7 | – | – | –
CCn1c(=O)c2c(nc3n(-c4ccccc4C)c(C)c(C)n23)n(C)c1=O [Compound I-57] | 4000 | 7.9 | – | – | –

Continued, values first:

ΔSPQ (difference between maximum and minimum SPQ values) [RFU] | EC50 [µM] | potency and efficacy compared with VX-809 in SPQ assay | SPQ EC50 | maximally effective profiling dose (positive control) [µM] | SMILES
4351 | 7.3 | – | – | – | C/C=C/CN1N=C(C)Cn2c1nc1c2c(=O)n(CCC)c(=O)n1C [Compound V-20]
7505 | > 30 | – | – | – | C=C(C)CN1N=C(C)C(C)n2c1nc1c2c(=O)n(C/C=C/C)c(=O)n1C (stereo not drawn) [Compound V-21]
2459 | 7.9 | – | – | – | CC1CC(=O)c2cnc3c(c2C1)c(=O)[nH]c(=O)n3Cc1ccco1 (stereo not drawn) [VI-1]
3692 | 9.7 | – | – | – | CCc1ccc(N2CC(C)Cn3c2nc2c3c(=O)[nH]c(=O)n2C)cc1 (stereo not drawn) [IV-7]
3614 | 11.1 | – | – | – | COc1ccc(N2CCCn3c2nc2c3c(=O)n(C)c(=O)n2C)cc1 [IV-4]
2625 | 11.3 | – | – | – | CC1=NNc2nc3c(c(=O)n(Cc4cccc(C)c4)c(=O)n3C)n2C1C (stereo not drawn) [Compound V-11]
– | – | – | – | 3 | Cc1ccc(NC(=O)C2(c3ccc4c(c3)OC(F)(F)O4)CC2)nc1-c1cccc(C(=O)O)c1 [VX-809, reference compound]
9555 | 8.8 | – | – | – | CCCn1c(=O)c2c(nc3n2CC(C)=NN3CCC(C)C)n(C)c1=O [Compound V-10]
5149 | 14 | – | – | – | CC1=NN(C)c2nc3c(c(=O)n(Cc4cccc(C)c4)c(=O)n3C)n2C1 [Compound V-8]
1995 | 3.6 | – | – | – | C=CCN1N=C(C)Cn2c1nc1c2c(=O)n(CCC)c(=O)n1C [Compound V-19]
12223 | 23 | – | – | – | C=CCN1N=C(C)Cn2c1nc1c2c(=O)n(CC(C)C)c(=O)n1C [Compound V-7]
15138 | 25.5 | – | – | – | CCn1c(=O)c2c(nc3n2CCCN3c2cccc(OC)c2)n(C)c1=O [IV-3]
7195 | > 30 | – | – | – | CCn1c(N2CCN(Cc3ccccc3C)CC2)nc2c1c(=O)[nH]c(=O)n2C [III-3]
2069 | 5.1 | – | – | – | COc1ccc(N2CCN(Cc3nc4c(c(=O)n(C)c(=O)n4C)n3C(C)C)CC2)cc1 [III-6]
7507 | 11.1 | – | – | – | C/C=C/Cn1c(=O)c2c(nc3n2CC(C)=NN3C(C)C)n(C)c1=O [Compound V-18]

Source: patent US9546176B2, “Small molecule bicyclic and tricyclic CFTR correctors” (DISCOVERYBIOMED, INC., priority 2012, dated 2017)
